Results published in US8765763B2, “Substituted piperazines as CGRP antagonists” (Boehringer Ingelheim International GmbH, priority 2009, dated 2014).
pKi: −log10 of the molar value.

Target: T1, human CGRP receptor (Homo sapiens, UniProt O60894+Q16602)
T1 construct: SK-N-MC membranes (˜20 μg protein) are incubated for 180 minutes at ambient temperature; endogenous in cells; host or cells: SK-N-MC cells (membranes)
Assay: Binding studies with SK-N-MC cells (expressing the human CGRP receptor), 125I-iodotyrosyl-CGRP displacement on SK-N-MC membranes
Details: 50 pM 125I-iodotyrosyl-CGRP, 180 minutes at ambient temperature
Protocol: A. Binding Studies with SK-N-MC Cells (Expressing the Human CGRP Receptor)
SK-N-MC membranes (˜20 μg protein) are incubated for 180 minutes at ambient temperature with 50 pM ^125I-iodotyrosyl-Calcitonin-Gene-Related Peptide and increasing concentrations of the test substances in a total volume of 250 μl (assay buffer: 10 mM tris, 50 mM NaCl, 5 mM MgCl2, 1 mM EDTA, pH=7.4). The incubation is ended by rapid filtration through GF/B-glass fibre filters treated with polyethyleneimine (0.1%) using a cell harvester. The protein-bound radioactivity is measured using a gamma counter. Non-specific binding is defined as the bound radioactivity after the presence of 1 μM BIBN4096BS during incubation.
The concentration binding curves are analysed using computer-aided non-linear curve fitting.

T1 sequence (Q16602 23-461): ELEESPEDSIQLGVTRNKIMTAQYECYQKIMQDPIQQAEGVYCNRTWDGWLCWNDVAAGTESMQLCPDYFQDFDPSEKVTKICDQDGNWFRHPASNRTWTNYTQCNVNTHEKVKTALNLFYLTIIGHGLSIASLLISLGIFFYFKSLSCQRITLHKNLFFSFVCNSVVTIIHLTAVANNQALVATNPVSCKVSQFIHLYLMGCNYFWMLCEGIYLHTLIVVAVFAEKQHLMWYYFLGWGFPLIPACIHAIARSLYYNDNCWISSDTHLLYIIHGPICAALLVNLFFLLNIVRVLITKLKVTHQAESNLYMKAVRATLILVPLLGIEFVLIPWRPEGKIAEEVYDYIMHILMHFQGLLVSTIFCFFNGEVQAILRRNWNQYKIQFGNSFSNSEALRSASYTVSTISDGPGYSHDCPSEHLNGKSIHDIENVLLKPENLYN
T1 sequence (O60894 27-148): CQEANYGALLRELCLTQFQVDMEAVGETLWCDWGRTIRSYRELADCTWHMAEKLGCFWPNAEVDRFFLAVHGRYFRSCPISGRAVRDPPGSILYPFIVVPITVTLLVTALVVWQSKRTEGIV

Row | Compound | pKi
1 | O=C(CN1C(=O)[C@H](CC2CCCCCC2)NCC1c1cc(F)cc(F)c1)Nc1ccc2c(c1)C[C@@]1(C2)C(=O)Nc2ncccc21 (single isomer, unassigned) [Example 13 Diastereomer 1] | 9.14
2 | O=C(CN1C(=O)[C@H](CC2CCCCCC2)NCC1c1cc(F)cc(F)c1)Nc1ccc2c(c1)C[C@@]1(C2)C(=O)Nc2ncccc21 (single isomer, unassigned) [Example 13 Diastereomer 2] | 9.15
3 | O=C(CN1C(=O)C(C2CCOCC2)NCC1c1cc(F)cc(F)c1)Nc1ccc2c(c1)C[C@@]1(C2)C(=O)Nc2ncccc21 (single isomer, unassigned) [Example 15a] | 10.00
4 | O=C(CN1C(=O)C(C2CCOCC2)NCC1c1cc(F)cc(F)c1)Nc1ccc2c(c1)C[C@@]1(C2)C(=O)Nc2ncccc21 (single isomer, unassigned) [Example 15b] | 9.41
5 | O=C(CN1C(=O)[C@@H](CC2CCCCCC2)NCC1c1cc(F)cc(F)c1)Nc1ccc2c(c1)C[C@@]1(C2)C(=O)Nc2ncccc21 (single isomer, unassigned) [Example 16a] | 8.27
6 | O=C(CN1C(=O)[C@@H](CC2CCCCCC2)NCC1c1cc(F)cc(F)c1)Nc1ccc2c(c1)C[C@@]1(C2)C(=O)Nc2ncccc21 (single isomer, unassigned) [Example 16b] | 9.89
7 | O=C(CN1C(=O)C2(COCCOC2)NCC1c1cc(F)cc(F)c1)Nc1cc2c(cn1)CC1(C2)C(=O)Nc2ncccc21 (stereo not shown) [Example 2] | 8.99
8 | O=C(CN1C(=O)C(CC2CCCCCC2)NCC1c1cc(F)cc(F)c1)Nc1ccc2c(c1)CC1(C2)C(=O)Nc2ncccc21 (stereo not shown) [Example 3] | 9.14
9 | O=C(CN1C(=O)C2(CCC3(CCOCC3)CC2)NC[C@H]1c1cc(F)cc(F)c1)Nc1ccc2c(c1)C[C@@]1(C2)C(=O)Nc2ncccc21 [Example 14, 2-((R)-3-(3,5-difluoro-phenyl)-5-oxo-12-oxa-1,4-diaza-dispiro[5.2.5.2]hexadecan-4-yl)-N-((R)-2′-oxo-1,1′,2′,3-tetrahydrospiro[inden-2,3′-pyrrolo[2,3-b]pyridin]-5-yl)acetamide] | 10.15
10 | O=C(CN1C(=O)C2(COCCOC2)NC[C@H]1c1cc(F)cc(F)c1)Nc1cc2c(cc1Cl)CC1(C2)C(=O)Nc2ncccc21 (stereo partly drawn) [Example 19, N-(5-chloro-2′-oxo-1,1′,2′,3-tetrahydrospiro[inden-2,3′-pyrrolo[2,3-b]pyridin]-6-yl)-2-((R)-3-(3,5-difluorophenyl)-5-oxo-8,11-dioxa-1,4-diazaspiro[5.6]dodecan-4-yl)acetamide] | 8.85
11 | O=C(CN1C(=O)C2(COCCOC2)NC[C@H]1c1cc(F)cc(F)c1)Nc1cnc2c(c1)CC1(C2)C(=O)Nc2ncccc21 (stereo partly drawn) [Example 24, 2-((R)-3-(3,5-difluorophenyl)-5-oxo-8,11-dioxa-1,4-diazaspiro[5.6]dodecan-4-yl)-N-(2′-oxo-1′,2′,5,7-tetrahydrospiro[cyclopenta[b]pyridin-6,3′-pyrrolo[2,3-b]pyridin]-3-yl)acetamide] | 10.15

Further lines, results first:

Row | pKi | Compound
12 | 10.52 | O=C(CN1C(=O)C2(COCCOC2)NC[C@H]1c1cc(F)cc(F)c1)Nc1ccc2c(c1)C[C@@]1(C2)C(=O)Nc2ncccc21 [Example 1a, 2-((R)-3-(3,5-difluorophenyl)-5-oxo-8,11-dioxa-1,4-diazaspiro[5.6]dodecan-4-yl)-N-((R)-2′-oxo-1,1′,2′,3-tetrahydrospiro[indene-2,3′-pyrrolo[2,3-b]pyridin]-5-yl)acetamide]
13 | 8.75 | O=C(CN1C(=O)C2(COCCOC2)NC[C@H]1c1cc(F)cc(F)c1)Nc1ccc2c(c1)C[C@]1(C2)C(=O)Nc2ncccc21 [Example 1b, 2-((R)-3-(3,5-difluorophenyl)-5-oxo-8,11-dioxa-1,4-diazaspiro[5.6]dodecan-4-yl)-N-((S)-2′-oxo-1,1′,2′,3-tetrahydrospiro[inden-2,3′-pyrrolo[2,3-b]pyridin]-5-yl)acetamide]
14 | 10.52 | CN1C[C@@H](c2cc(F)cc(F)c2)N(CC(=O)Nc2ccc3c(c2)C[C@@]2(C3)C(=O)Nc3ncccc32)C(=O)C12COCCOC2 [Example 17, 2-((R)-3-(3,5-difluorophenyl)-1-methyl-5-oxo-8,11-dioxa-1,4-diazaspiro[5.6]dodecan-4-yl)-N-((R)-2′-oxo-1,1′,2′,3-tetrahydrospiro[inden-2,3′-pyrrolo[2,3-b]pyridin]-5-yl)acetamide]
15 | 9.08 | COc1cccc(C2CNC3(COCCOC3)C(=O)N2CC(=O)Nc2ccc3c(c2)C[C@@]2(C3)C(=O)Nc3ncccc32)c1 (stereo partly drawn) [Example 18, 2-(3-(3-methoxyphenyl)-5-oxo-8,11-dioxa-1,4-diazaspiro[5.6]dodecan-4-yl)-N—((R)-2′-oxo-1′,2′,3-tetrahydrospiro[inden-2,3′-pyrrolo[2,3-b]pyridin]-5-yl)acetamide]
16 | 9.02 | CC(C)(C)OC(=O)N1C[C@@H](c2ccccc2)N(CC(=O)Nc2ccc3c(c2)C[C@@]2(C3)C(=O)Nc3ncccc32)C(=O)C12COCCOC2 [Example 20, (R)-tert-butyl 5-oxo-4-(2-oxo-2-((R)-2′-oxo-1,1′,2′,3-tetrahydrospiro[inden-2,3′-pyrrolo[2,3-b]pyridin]-5-ylamino)ethyl)-3-phenyl-8,11-dioxa-1,4-diazaspiro[5.6]dodecane-1-carboxylate]
17 | 9.36 | O=C(CN1C(=O)C2(COCCOC2)NC[C@H]1c1ccccc1)Nc1ccc2c(c1)C[C@@]1(C2)C(=O)Nc2ncccc21 [Example 21, N—((R)-2′-oxo-1,1′,2′,3-tetrahydrospiro[inden-2,3′-pyrrolo[2,3-b]pyridin]-5-yl)-2-((R)-5-oxo-3-phenyl-8,11-dioxa-1,4-diazaspiro[5.6]dodecan-4-yl)acetamide]
18 | 9.96 | O=C(CN1C(=O)C2(COCCOC2)NC[C@H]1c1ccc(F)cc1)Nc1ccc2c(c1)C[C@@]1(C2)C(=O)Nc2ncccc21 [Example 22, 2-((R)-3-(4-fluorophenyl)-5-oxo-8,11-dioxa-1,4-diazaspiro[5.6]dodecan-4-yl)-N-((R)-2′-oxo-1,1′,2′,3-tetrahydrospiro[inden-2,3′-pyrrolo[2,3-b]pyridin]-5-yl)acetamide]
19 | 10.30 | O=C(CN1C(=O)C2(COCCOC2)NCC1c1cccc(F)c1)Nc1ccc2c(c1)C[C@@]1(C2)C(=O)Nc2ncccc21 (stereo partly drawn) [Example 23, 2-(3-(3-fluorophenyl)-5-oxo-8,11-dioxa-1,4-diazaspiro[5.6]dodecan-4-yl)-N—((R)-2′-oxo-1,1′,2′,3-tetrahydrospiro[inden-2,3′-pyrrolo[2,3-b]pyridin]-5-yl)acetamide]
